# Test results published in ChEMBL document CHEMBL5465560, “Selectivity Literature for EUbOPEN Chemogenomic Library” (2024).
# Legend:
# [1] = molecular target: Mitogen-activated protein kinase 8 (Homo sapiens, UniProt P45983); assay: Selectivity interaction (KinomeScan (DiscoverX)) EUB0000666a MAPK8; details: at 10 µM
# [2] = molecular target: Glycogen synthase kinase-3 beta (Homo sapiens, UniProt P49841); assay: Selectivity interaction (Kinase panel (33PanQinase(R) Activity Assay)) EUB0000877a GSK3B
# [3] = test system: Mast/stem cell growth factor receptor Kit (Homo sapiens), P10721 [V559D,T670I]; details: at 10 µM
# [4] = molecular target: LIM domain kinase 1 (Homo sapiens) (UniProt P53667); details: at 10 µM
# [5] = molecular target: Cyclin-dependent kinase 7 (Homo sapiens, UniProt P50613); assay: Selectivity interaction (ActivX KiNativ screen (kinase selectivity in THP-1 cell lysates)) EUB0000639a CDK7; assay type: subcellular; details: lysate
# [6] = molecular target: Serine/threonine-protein kinase 10 (Homo sapiens) (UniProt O94804); assay: Selectivity interaction (ActivX KiNativ screen (kinase selectivity in THP-1 cell lysates)) EUB0000639a STK10; assay type: subcellular; details: lysate, at 5 µM
# [7] = molecular target: Serine/threonine-protein kinase VRK2 (Homo sapiens) (UniProt Q86Y07); assay: Selectivity interaction (ActivX KiNativ screen (kinase selectivity in THP-1 cell lysates)) EUB0000639a VRK2; assay type: subcellular; details: lysate
# [8] = molecular target: Serine/threonine-protein kinase Nek4 (Homo sapiens) (UniProt P51957); assay: Selectivity interaction (KinomeScan (DiscoverX)) EUB0000045b NEK4
# [9] = molecular target: Dual specificity protein kinase CLK4 (Homo sapiens, UniProt Q9HAZ1); assay: Selectivity interaction (KinomeScan (DiscoverX)) EUB0001619a CLK4; details: at 1 µM
# [10] = molecular target: T1, Mitogen-activated protein kinase kinase kinase kinase 2 (Homo sapiens) (UniProt Q12851); assay: Selectivity interaction (ActivX KiNativ screen (ex vivo kinase selectivity in human PBMCs)) EUB0001619a MAP4K2; assay type: cell-based; details: PBMC, at 1 µM
# T1 sequence (whole entry): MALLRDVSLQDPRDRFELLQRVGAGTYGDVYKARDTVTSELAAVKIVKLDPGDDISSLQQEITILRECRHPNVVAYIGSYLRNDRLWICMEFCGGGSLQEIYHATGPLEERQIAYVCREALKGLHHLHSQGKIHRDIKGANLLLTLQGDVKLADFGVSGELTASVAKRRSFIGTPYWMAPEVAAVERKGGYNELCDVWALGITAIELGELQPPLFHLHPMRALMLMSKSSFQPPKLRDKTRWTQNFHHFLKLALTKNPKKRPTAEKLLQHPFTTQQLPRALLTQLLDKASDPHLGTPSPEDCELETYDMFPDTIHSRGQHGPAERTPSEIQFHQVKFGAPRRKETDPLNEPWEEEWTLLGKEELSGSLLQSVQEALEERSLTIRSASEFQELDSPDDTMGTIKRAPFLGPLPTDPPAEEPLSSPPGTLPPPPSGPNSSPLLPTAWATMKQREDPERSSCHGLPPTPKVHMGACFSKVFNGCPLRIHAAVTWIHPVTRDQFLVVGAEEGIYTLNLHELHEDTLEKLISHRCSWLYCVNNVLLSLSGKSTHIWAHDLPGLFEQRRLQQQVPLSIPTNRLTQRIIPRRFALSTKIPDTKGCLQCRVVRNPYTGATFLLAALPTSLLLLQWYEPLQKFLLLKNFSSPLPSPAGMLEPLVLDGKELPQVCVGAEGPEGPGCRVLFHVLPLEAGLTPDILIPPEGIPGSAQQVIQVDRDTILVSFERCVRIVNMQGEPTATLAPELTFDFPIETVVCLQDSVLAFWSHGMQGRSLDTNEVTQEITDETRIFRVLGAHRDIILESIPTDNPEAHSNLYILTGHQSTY
# [11] = molecular target: Insulin-like growth factor 1 receptor (Homo sapiens, UniProt P08069); assay: Selectivity interaction (KinomeScan (DiscoverX)) EUB0001619a IGF1R; details: at 1 µM
# [12] = molecular target: Mitogen-activated protein kinase 3 (Homo sapiens, UniProt P27361); assay: Selectivity interaction (KinomeScan (DiscoverX)) EUB0001619a MAPK3; details: at 1 µM
# [13] = molecular target: SRSF protein kinase 2 (Homo sapiens) (UniProt P78362); assay: Selectivity interaction (KinomeScan (DiscoverX)) EUB0001619a SRPK2; details: at 1 µM
# [14] = molecular target: T2, Tyrosine-protein kinase ZAP-70 (Homo sapiens) (UniProt P43403); assay: Selectivity interaction (ActivX KiNativ screen (ex vivo kinase selectivity in human PBMCs)) EUB0001619a ZAP70; assay type: cell-based; details: PBMC, at 1 µM
# T2 sequence (whole entry): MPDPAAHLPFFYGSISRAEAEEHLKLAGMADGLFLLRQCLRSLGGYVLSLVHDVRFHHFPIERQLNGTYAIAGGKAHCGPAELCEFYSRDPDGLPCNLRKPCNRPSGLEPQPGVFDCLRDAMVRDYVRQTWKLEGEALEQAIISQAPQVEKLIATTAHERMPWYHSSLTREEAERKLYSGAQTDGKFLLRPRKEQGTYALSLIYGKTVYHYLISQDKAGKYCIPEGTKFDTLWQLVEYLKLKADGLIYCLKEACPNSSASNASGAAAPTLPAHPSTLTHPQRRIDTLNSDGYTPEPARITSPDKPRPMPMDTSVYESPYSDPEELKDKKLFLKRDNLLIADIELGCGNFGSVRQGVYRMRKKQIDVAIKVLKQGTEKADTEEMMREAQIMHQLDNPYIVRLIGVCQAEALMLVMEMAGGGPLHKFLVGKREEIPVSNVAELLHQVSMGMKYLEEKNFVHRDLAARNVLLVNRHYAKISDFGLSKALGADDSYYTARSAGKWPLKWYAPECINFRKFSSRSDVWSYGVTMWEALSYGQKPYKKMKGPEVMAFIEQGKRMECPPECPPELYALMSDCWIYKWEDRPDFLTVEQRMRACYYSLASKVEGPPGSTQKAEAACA
# [15] = molecular target: Serine/threonine-protein kinase PAK 6 (Homo sapiens) (UniProt Q9NQU5); assay: Selectivity interaction (Upstate Kinase Profiler service (Millipore)) EUB0000056c PAK6; details: at 1 µM
# [16] = molecular target: Proto-oncogene tyrosine-protein kinase Src (Homo sapiens, UniProt P12931); assay: Selectivity interaction (SelectScreen profiling (Invitrogen)) EUB0000607a SRC; details: at 2 µM
# [17] = molecular target: Nav1.5 (SCN5A) (Homo sapiens, UniProt Q14524); assay: Selectivity interaction (Panel of kinases, GPCRs, ion channels and transporters (enzymatic assay)) EUB0000223bCl SCN5A
# [18] = molecular target: PAS domain-containing serine/threonine-protein kinase (Homo sapiens) (UniProt Q96RG2); assay: Selectivity interaction (Kinase panel (Z-LYTE Assay)) EUB0001632a PASK; details: at 10 µM
# Sequence of PAS domain-containing serine/threonine-protein kinase (Homo sapiens) (Q96RG2 whole entry, the tested form may be a part): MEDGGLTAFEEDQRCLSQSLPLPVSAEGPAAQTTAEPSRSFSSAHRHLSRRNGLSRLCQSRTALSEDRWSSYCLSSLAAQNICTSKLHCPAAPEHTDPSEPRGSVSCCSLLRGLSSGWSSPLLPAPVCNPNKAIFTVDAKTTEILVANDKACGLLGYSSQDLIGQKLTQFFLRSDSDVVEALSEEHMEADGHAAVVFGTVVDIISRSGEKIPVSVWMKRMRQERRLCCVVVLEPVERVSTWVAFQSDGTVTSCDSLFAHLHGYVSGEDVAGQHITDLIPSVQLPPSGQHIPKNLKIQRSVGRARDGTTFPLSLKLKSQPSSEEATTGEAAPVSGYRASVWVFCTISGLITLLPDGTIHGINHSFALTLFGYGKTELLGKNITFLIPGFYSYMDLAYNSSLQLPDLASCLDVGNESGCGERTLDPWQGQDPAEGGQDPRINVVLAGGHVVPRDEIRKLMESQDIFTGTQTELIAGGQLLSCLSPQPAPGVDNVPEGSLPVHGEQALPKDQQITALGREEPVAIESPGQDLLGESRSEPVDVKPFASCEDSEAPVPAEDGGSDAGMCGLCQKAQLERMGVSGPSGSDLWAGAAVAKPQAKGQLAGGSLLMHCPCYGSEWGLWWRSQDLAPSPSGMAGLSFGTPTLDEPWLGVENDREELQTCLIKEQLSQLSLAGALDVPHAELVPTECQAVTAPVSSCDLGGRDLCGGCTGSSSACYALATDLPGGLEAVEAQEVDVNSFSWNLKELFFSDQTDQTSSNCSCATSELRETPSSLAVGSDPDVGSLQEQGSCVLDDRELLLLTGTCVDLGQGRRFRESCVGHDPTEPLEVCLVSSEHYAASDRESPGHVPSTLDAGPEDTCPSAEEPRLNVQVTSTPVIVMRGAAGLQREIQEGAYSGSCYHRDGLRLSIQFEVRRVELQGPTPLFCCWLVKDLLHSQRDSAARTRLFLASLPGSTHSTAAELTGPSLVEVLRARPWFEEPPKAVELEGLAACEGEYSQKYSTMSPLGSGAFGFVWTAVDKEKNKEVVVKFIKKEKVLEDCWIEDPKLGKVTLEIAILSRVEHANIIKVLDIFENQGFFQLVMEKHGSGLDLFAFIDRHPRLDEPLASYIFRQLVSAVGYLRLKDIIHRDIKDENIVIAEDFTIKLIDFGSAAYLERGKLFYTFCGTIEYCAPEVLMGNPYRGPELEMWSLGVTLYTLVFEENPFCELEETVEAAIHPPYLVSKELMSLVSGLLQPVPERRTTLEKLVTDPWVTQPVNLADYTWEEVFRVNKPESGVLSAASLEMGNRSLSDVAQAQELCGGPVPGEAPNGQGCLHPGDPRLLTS
# Sequence of Serine/threonine-protein kinase VRK2 (Homo sapiens) (Q86Y07 whole entry): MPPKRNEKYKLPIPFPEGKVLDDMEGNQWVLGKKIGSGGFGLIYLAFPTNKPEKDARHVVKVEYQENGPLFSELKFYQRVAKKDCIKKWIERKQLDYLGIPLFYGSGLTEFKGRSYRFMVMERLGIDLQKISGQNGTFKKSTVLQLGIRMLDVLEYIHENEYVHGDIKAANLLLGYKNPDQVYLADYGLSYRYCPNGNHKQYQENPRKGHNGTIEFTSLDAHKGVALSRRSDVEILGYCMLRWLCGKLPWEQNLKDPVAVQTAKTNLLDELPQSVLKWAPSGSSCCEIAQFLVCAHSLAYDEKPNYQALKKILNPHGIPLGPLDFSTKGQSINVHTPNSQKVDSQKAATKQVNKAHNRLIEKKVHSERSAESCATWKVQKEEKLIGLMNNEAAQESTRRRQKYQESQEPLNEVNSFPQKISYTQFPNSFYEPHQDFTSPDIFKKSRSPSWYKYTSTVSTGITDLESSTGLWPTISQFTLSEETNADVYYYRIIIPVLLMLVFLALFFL
# Sequence of Cyclin-dependent kinase 7 (P50613 whole entry): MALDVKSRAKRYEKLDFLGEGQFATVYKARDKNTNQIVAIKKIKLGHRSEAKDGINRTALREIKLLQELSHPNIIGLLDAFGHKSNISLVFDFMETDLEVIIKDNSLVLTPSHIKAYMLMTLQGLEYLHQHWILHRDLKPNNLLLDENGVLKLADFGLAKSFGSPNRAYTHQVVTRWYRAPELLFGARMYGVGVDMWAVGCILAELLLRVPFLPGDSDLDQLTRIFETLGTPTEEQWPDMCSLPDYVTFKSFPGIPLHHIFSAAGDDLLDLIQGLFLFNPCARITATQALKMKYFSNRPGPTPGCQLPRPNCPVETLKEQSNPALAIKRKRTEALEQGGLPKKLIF
# Sequence of Serine/threonine-protein kinase Nek4 (Homo sapiens) (P51957 whole entry, looked up): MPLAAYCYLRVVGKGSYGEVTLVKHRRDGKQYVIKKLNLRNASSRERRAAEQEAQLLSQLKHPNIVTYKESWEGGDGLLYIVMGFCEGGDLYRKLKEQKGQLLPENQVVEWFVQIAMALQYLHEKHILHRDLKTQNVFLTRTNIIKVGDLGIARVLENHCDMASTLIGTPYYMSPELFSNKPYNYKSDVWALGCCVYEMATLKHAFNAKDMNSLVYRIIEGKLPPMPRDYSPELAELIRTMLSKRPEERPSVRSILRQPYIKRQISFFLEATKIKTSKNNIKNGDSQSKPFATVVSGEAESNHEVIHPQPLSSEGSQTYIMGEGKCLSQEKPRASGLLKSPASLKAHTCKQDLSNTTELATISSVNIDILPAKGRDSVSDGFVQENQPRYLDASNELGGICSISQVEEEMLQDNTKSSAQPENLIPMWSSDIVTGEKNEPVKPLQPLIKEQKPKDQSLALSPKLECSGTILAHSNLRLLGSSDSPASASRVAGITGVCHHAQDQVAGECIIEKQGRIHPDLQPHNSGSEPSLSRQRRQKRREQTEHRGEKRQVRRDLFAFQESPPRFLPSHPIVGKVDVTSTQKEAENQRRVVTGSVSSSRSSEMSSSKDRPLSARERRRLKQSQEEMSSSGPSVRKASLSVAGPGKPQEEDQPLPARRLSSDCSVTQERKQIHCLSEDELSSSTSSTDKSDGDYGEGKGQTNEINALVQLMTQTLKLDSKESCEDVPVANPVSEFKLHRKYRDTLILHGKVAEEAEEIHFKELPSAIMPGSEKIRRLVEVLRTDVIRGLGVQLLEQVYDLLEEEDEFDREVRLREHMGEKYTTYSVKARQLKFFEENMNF
# Sequence of Dual specificity protein kinase CLK4 (Q9HAZ1 whole entry, looked up): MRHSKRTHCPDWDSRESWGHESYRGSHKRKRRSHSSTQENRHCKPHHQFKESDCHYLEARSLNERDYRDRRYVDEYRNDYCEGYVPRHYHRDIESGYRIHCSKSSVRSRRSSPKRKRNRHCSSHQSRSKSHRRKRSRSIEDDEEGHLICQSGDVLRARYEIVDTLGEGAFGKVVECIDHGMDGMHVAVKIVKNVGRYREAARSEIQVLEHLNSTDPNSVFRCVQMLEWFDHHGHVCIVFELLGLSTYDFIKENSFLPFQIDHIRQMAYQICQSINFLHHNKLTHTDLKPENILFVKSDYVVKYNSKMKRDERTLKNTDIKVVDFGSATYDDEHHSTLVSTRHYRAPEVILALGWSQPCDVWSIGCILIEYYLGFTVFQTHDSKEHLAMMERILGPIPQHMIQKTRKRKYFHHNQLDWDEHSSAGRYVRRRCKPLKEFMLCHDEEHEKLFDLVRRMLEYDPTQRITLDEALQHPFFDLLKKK
# Sequence of Mitogen-activated protein kinase 8 (P45983 whole entry): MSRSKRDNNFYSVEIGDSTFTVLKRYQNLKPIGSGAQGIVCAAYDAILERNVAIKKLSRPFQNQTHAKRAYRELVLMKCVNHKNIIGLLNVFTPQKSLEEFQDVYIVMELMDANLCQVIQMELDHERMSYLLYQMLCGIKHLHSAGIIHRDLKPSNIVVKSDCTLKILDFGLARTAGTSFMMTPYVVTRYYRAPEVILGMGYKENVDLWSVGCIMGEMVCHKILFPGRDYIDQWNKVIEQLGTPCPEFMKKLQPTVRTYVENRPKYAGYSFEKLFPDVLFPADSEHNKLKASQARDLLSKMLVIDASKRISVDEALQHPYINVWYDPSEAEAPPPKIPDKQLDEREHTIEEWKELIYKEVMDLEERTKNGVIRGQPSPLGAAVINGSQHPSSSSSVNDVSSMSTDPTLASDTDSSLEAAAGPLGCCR
# Sequence of Proto-oncogene tyrosine-protein kinase Src (P12931 2-536 limits assumed): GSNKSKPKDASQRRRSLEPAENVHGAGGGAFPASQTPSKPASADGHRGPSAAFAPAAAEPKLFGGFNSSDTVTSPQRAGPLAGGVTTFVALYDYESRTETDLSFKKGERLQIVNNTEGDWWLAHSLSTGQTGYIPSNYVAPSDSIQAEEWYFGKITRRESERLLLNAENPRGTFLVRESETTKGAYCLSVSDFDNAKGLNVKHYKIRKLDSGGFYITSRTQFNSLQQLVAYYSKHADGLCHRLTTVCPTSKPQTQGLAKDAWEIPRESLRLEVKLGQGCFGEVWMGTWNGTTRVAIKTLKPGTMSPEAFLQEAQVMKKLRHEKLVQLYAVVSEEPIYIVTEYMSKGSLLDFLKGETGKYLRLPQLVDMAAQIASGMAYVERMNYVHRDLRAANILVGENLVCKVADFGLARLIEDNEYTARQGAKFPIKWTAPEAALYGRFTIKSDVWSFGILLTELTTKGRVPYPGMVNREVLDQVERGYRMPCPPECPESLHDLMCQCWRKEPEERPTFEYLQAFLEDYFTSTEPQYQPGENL
# Sequence of Mitogen-activated protein kinase 3 (P27361 whole entry): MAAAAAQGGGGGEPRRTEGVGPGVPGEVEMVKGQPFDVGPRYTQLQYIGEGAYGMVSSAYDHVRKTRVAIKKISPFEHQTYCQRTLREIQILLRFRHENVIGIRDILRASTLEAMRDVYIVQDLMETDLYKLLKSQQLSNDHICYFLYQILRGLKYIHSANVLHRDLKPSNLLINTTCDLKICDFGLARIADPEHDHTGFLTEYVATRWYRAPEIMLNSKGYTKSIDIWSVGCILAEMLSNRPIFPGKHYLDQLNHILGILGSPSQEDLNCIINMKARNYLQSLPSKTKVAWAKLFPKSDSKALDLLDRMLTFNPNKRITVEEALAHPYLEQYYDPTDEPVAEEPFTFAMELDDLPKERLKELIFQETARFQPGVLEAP
smiles,measurement,setting,value
O=C(NOC[C@H](O)CO)c1ccc(F)c(F)c1Nc1ccc(I)cc1F,% of control,[1],92%
CCC(=O)N1CC[C@H](Nc2ncnc3c2CN(c2cnc(OC)c(C(F)(F)F)c2)CC3)C1 [LENIOLISIB],IC50,[2],> 10 µM
CCN(CC)CCCCNc1ncc2cc(-c3cc(OC)cc(OC)c3)c(NC(=O)NC(C)(C)C)nc2n1,% of control,[3],100%
same,% of control,[4],100%
CC[C@@H]1[C@H](F)C(=O)N[C@@H]1COc1nccc2cc(C(N)=O)c(OC)cc12 [ZIMLOVISERTIB],% of inhibition,[5]; at 0.01 µM,-17%
same,% of inhibition,[5]; at 0.04 µM,-0.9%
same,% of inhibition,[5]; at 0.2 µM,-1.1%
same,% of inhibition,[5]; at 1 µM,20.9%
same,% of inhibition,[5]; at 5 µM,60%
same,% of inhibition,[6],-16.6%
same,% of inhibition,[7]; at 0.01 µM,-16.6%
same,% of inhibition,[7]; at 0.04 µM,-6%
same,% of inhibition,[7]; at 0.2 µM,-28.4%
same,% of inhibition,[7]; at 1 µM,-14.8%
same,% of inhibition,[7]; at 5 µM,8.1%
C=CC(=O)Nc1cc(-n2c(=O)ccc3cnc4ccc(-c5ccc(NS(C)(=O)=O)cc5)cc4c32)ccc1C,% of control,[8]; at 1 µM,81%
same,% of control,[8]; at 10 µM,100%
N#Cc1cccc(-c2c[nH]c3ncnc(N4CCOCC4)c23)c1,% of control,[9],38%
same,% of inhibition,[10],31%
same,% of control,[11],87%
same,% of control,[12],87%
same,% of control,[13],70%
same,% of inhibition,[14],7%
Cc1ccc(-c2ccc3c(ccc4sc5c(c43)NC[C@@H](C)NC5=O)n2)cn1,% of inhibition,[15],9%
CNC(=O)Nc1ccc(-c2nc(N3CC4CCC(C3)O4)c3cnn(C4CCC5(CC4)OCCO5)c3n2)cc1,% of inhibition,[16],3%
COc1cc(C(=O)N2CC[C@@H](O)[C@@H](N)C2)cc2nc(-c3cc4ccccc4n3CC3CC3)n(C)c12,XC50,[17],39.8 µM
Cn1cc(-n2cnc3c(NCc4nc5cc(Cl)c(Cl)cc5[nH]4)nc(N4CCOCC4)nc32)cn1,% of control,[18],2.87%
